In paper PMC6117054, “The Congo red derivative FSB binds to curli amyloid fibers and specifically stains curliated E. coli” (PLoS ONE, 2018):
pKd: −log10 of the molar value.

Molecular target: T1, curli (native curli fibers; monomeric unit CsgA) (Escherichia coli, UniProt P28307)
T1 construct: native curli amyloid fibers isolated from E. coli MC4100; mature secreted CsgA (signal peptide removed); 13 kDa monomeric unit; fiber polymer
Test: depletion (centrifugation) assay, absorbance of free dye at […] nm, saturation fit
Assay type: binding

T1 sequence (P28307 21-151): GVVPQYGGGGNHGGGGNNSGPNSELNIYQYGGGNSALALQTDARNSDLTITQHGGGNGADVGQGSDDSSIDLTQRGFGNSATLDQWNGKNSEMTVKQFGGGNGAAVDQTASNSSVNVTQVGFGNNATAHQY

**Q.** With `O=C(O)c1cc(/C=C/c2ccc(/C=C/c3ccc(O)c(C(=O)O)c3)c(F)c2)ccc1O` [FSB, (E,E)-1-fluoro-2,5-bis(3-hydroxycarbonyl-4-hydroxy) styrylbenzene] as the compound, how does the pKd read?
**A.** 5.10
